Measured values taken from patent US8785488B2 (Exelixis Patent Company LLC, priority 2009, dated 2014).

Biological target: T1, human TGR5 (h-TGR5) (Homo sapiens, UniProt Q8TDU6)
T1 construct: expressed in transfected cells
T1 sequence (Q8TDU6 1-330): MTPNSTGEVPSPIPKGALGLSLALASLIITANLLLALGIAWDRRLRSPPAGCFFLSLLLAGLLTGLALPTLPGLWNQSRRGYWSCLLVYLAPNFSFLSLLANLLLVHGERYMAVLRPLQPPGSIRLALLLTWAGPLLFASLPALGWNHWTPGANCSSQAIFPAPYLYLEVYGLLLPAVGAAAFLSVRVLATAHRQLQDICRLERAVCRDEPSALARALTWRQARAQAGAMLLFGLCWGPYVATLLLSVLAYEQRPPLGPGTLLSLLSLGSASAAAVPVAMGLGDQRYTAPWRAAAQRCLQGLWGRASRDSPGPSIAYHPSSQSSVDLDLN
Test: TGR5/CRE-Luciferiase Assay (HEK 293 hTGR5/CRE-Luc cells)
Format: cell-based
Conditions: h-TGR5 CRE-Luc EC50, Table 1; read-out: CRE-Luc (EC50)
Outline: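 HEK293 cells stably carrying hTGR5 and a CRE-luciferase reporter were exposed to serially diluted compounds (diluted in DMEM with 5% DMSO) for 6 h. Cells were then lysed in luciferase buffer, luminescence was read, and EC50 values were derived from dose-response curves.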

SMILES | EC50
CC(C)(c1ccc(NS(C)(=O)=O)cc1)c1cnc(SCc2c(F)cccc2Cl)n1-c1ccc(F)cc1 [N-(4-{1-[2-{[(2-chloro-6-fluorophenyl)methyl]thio}-1-(4-fluorophenyl)-1H-imidazol-5-yl]-1-methylethyl}phenyl)methanesulfonamide] | 100 to 1000 nM
CC(C)(c1ccc(Cl)c(Cl)c1)c1cnc(SCc2c(Cl)cccc2C(=O)O)n1-c1ccc(F)cc1 [3-chloro-2-[({5-[1-(3,4-dichlorophenyl)-1-methylethyl]-1-(4-fluorophenyl)-1H-imidazol-2-yl}thio)methyl]benzoic acid] | 100 to 1000 nM
CC(=O)c1ccc(OCc2ncc(C(C)(C)c3ccc(Cl)c(Cl)c3)n2-c2ccc(F)cc2)c(Cl)c1 [1-{3-chloro-4-[({5-[1-(3,4-dichlorophenyl)-1-methylethyl]-1-(4-fluorophenyl)-1H-imidazol-2-yl}methyl)oxy]phenyl}ethanone] | 1000 to 10000 nM
CC(C)(C)OC(=O)N1CCC(CSc2ncc(C(C)(C)c3ccc(Cl)c(Cl)c3)n2-c2ccc(F)cc2)C1 (centres unmarked) [1,1-dimethylethyl 3-[({5-[1-(3,4-dichlorophenyl)-1-methylethyl]-1-(4-fluorophenyl)-1H-imidazol-2-yl}thio)methyl]pyrrolidine-1-carboxylate] | 100 to 1000 nM
CC(C)(c1ccc(OCC(=O)O)cc1)c1cnc(SCc2c(F)cccc2Cl)n1-c1ccc(F)cc1 [[(4-{1-[2-{[(2-chloro-6-fluorophenyl)methyl]thio}-1-(4-fluorophenyl)-1H-imidazol-5-yl]-1-methylethyl}phenyl)oxy]acetic acid] | 1000 to 10000 nM
COc1ccc(C(C)(C)c2cnc(C(=O)Nc3c(F)cccc3Cl)n2-c2ccc(F)cc2)cc1OC [5-{1-[3,4-bis(methyloxy)phenyl]-1-methylethyl}-N-(2-chloro-6-fluorophenyl)-1-(4-fluorophenyl)-1H-imidazole-2-carboxamide] | 1000 to 10000 nM
CC(C)(c1ccc(Cl)c(Cl)c1)c1cnc(SCc2c(F)cccc2Cl)n1-c1ccc(F)c(Cl)c1 [1-(3-chloro-4-fluorophenyl)-2-{[(2-chloro-6-fluorophenyl)methyl]thio}-5-[1-(3,4-dichlorophenyl)-1-methylethyl]-1H-imidazole] | < 100 nM
CC(C)(c1ccc(Cl)c(Cl)c1)c1cnc(S(=O)(=O)Nc2ccc(F)cc2Cl)n1-c1ccc(F)cc1 [N-(2-chloro-4-fluorophenyl)-5-[1-(3,4-dichlorophenyl)-1-methylethyl]-1-(4-fluorophenyl)-1H-imidazole-2-sulfonamide] | 1000 to 10000 nM
CC(C)(c1ccc(F)cc1)c1cnc(SCc2ccc(S(=O)(=O)NC(=O)NN3CCCC3)cc2Cl)n1-c1ccc(F)c(F)c1 [3-chloro-4-[({1-(3,4-difluorophenyl)-5-[1-(4-fluorophenyl)-1-methylethyl]-1H-imidazol-2-yl}thio)methyl]-N-[(pyrrolidin-1-ylamino)carbonyl]benzenesulfonamide] | 1000 to 10000 nM
COc1ccc(C(C)(C)c2cnc(SCc3ccc(C(=O)O)cc3F)n2-c2ccc(F)cc2)cc1Cl [4-({[5-{1-[3-chloro-4-(methyloxy)phenyl]-1-methylethyl}-1-(4-fluorophenyl)-1H-imidazol-2-yl]thio}methyl)-3-fluorobenzoic acid] | 100 to 1000 nM
CC(C)(c1ccc(Cl)c(Cl)c1)c1cnc(SCc2ccc(F)cc2S(C)(=O)=O)n1-c1ccc(F)cc1 [5-[1-(3,4-dichlorophenyl)-1-methylethyl]-2-({[4-fluoro-2-(methylsulfonyl)phenyl]methyl}thio)-1-(4-fluorophenyl)-1H-imidazole] | 100 to 1000 nM
CC(C)(c1ccc(Cl)c(Cl)c1)c1cnc(COc2ccc(C(N)=O)cn2)n1-c1ccc(F)cc1 [6-[({5-[1-(3,4-dichlorophenyl)-1-methylethyl]-1-(4-fluorophenyl)-1H-imidazol-2-yl}methyl)oxy]pyridine-3-carboxamide] | 100 to 1000 nM
CC(C)(c1ccc(Cl)c(Cl)c1)c1cnc(SCc2ccc(Cl)c(-c3nnn[nH]3)c2)n1-c1cccc(F)c1 [5-{2-chloro-5-[({5-[1-(3,4-dichlorophenyl)-1-methylethyl]-1-(3-fluorophenyl)-1H-imidazol-2-yl}thio)methyl]phenyl}-1H-tetrazole] | 100 to 1000 nM
CC(C)(c1ccc(F)cc1)c1cnc(SCc2c(F)cccc2Cl)n1-c1ccc(F)cc1 [2-{[(2-chloro-6-fluorophenyl)methyl]thio}-1-(4-fluorophenyl)-5-[1-(4-fluorophenyl)-1-methylethyl]-1H-imidazole] | 100 to 1000 nM
COc1cc(-n2c(C(C)(C)c3ccc(Cl)c(OC)c3)cnc2SCc2ccc(S(N)(=O)=O)cc2Cl)ccc1F [3-chloro-4-{[(5-{1-[4-chloro-3-(methyloxy)phenyl]-1-methylethyl}-1-[4-fluoro-3-(methyloxy)phenyl]-1H-imidazol-2-yl)thio]methyl}benzenesulfonamide] | < 100 nM
CC(C)(O)COc1cc(C(C)(C)c2cnc(SCc3c(F)cccc3Cl)n2-c2ccc(F)cc2)ccc1Cl [1-[(2-chloro-5-{1-[2-{[(2-chloro-6-fluorophenyl)methyl]thio}-1-(4-fluorophenyl)-1H-imidazol-5-yl]-1-methylethyl}phenyl)oxy]-2-methylpropan-2-ol] | 100 to 1000 nM
CC(C)(c1ccc(Cl)c(Cl)c1)c1nc(CSc2ccc(F)cc2Cl)cn1-c1ccc(F)cc1 [4-{[(2-chloro-4-fluorophenyl)thio]methyl}-2-[1-(3,4-dichlorophenyl)-1-methylethyl]-1-(4-fluorophenyl)-1H-imidazole] | 1000 to 10000 nM
CC(C)(c1ccc(Cl)c(Cl)c1)c1cnc(/C=C/c2c(F)cccc2Cl)n1-c1ccc(F)cc1 [2-[(E)-2-(2-chloro-6-fluorophenyl)ethenyl]-5-[1-(3,4-dichlorophenyl)-1-methylethyl]-1-(4-fluorophenyl)-1H-imidazole] | 1000 to 10000 nM
CC(C)(c1ccc(Cl)c(Cl)c1)c1cnc(SCc2ccc(F)c(C(=O)NCCN3CCOCC3)c2)n1-c1ccc(F)cc1 [5-[({5-[1-(3,4-dichlorophenyl)-1-methylethyl]-1-(4-fluorophenyl)-1H-imidazol-2-yl}thio)methyl]-2-fluoro-N-(2-morpholin-4-ylethyl)benzamide] | 100 to 1000 nM
CC(C)(c1ccc(Cl)c(Cl)c1)c1cnc(SCc2ccc(C#N)c(Cl)c2)n1-c1ccc(F)cc1 [2-chloro-4-[({5-[1-(3,4-dichlorophenyl)-1-methylethyl]-1-(4-fluorophenyl)-1H-imidazol-2-yl}thio)methyl]benzonitrile] | 100 to 1000 nM
CC(C)(c1ccc(Cl)c(Cl)c1)c1cnc(S(=O)(=O)Cc2c(F)cccc2Cl)n1-c1ccc(F)cc1 [2-{[(2-chloro-6-fluorophenyl)methyl]sulfonyl}-5-[1-(3,4-dichlorophenyl)-1-methylethyl]-1-(4-fluorophenyl)-1H-imidazole] | 100 to 1000 nM
CC(C)(c1ccc(Cl)c(Cl)c1)c1cnc(C(F)CC2CCN(S(C)(=O)=O)CC2)n1-c1ccc(F)cc1 (centres unmarked) [4-(2-{5-[1-(3,4-dichlorophenyl)-1-methylethyl]-1-(4-fluorophenyl)-1H-imidazol-2-yl}-2-fluoroethyl)-1-(methylsulfonyl)piperidine] | 1000 to 10000 nM
CC(C)(c1ccc(Cl)c(O)c1)c1cnc(SCc2c(F)cc(C(=O)O)cc2F)n1-c1ccc(F)cc1 [4-[({5-[1-(4-chloro-3-hydroxyphenyl)-1-methylethyl]-1-(4-fluorophenyl)-1H-imidazol-2-yl}thio)methyl]-3,5-difluorobenzoic acid] | 100 to 1000 nM
